How the values were obtained:
Type in all cases: cell-based
[1] = tested on: HT-29 cells; assay: MTT cell viability assay, HT-29; conditions: Homo sapiens, 72 h, MTT assay, 3 d treatment, serial dilutions
[2] = tested on: MEK1/2; assay: Western blot of MEK1/2 protein levels in HT-29 cells; conditions: 24 h
Protocol: Compound concentrations are 0.3 μM, 1 μM and 3 μM.
The indicated protein levels were determined by Western blots.
The sample was centrifuged at 12,000 g for 10 min at 4° C. to get supernatant as cell lysate. Protein concentrations were quantified using Pierce rapid gold BCA protein assay kit.

[3] = tested on: HT-29 cells; assay: WST-8 cell viability assay, HT-29; conditions: WST-8 3 d serial dilutions, clonogenic assay 10 d
Protocol: (§1) Cells were fixed and stained by crystal violet.
(§2) Cells (2000 cells per well) were seeded into 96-well microplates. After 20 h, cells were treated with 0.1% DMSO or indicated serial dilutions of compounds in duplicate or triplicate for 3 days. Cell viability was tested using MTT (M6494, Thermo Fisher Scientific) or WST-8 reagent (CK04, Dojindo). Briefly, 12 mM MTT was prepared in PBS or WST-8 reagent was warmed up to room temperature. 20 μL MTT or CCK-8 was then added to each well and the plates were kept in incubator at 37° C. for 3 h in the dark. For the WST-8 assay, signal was obtained after the incubation. For the MTT assay, cell medium was replaced with 200 μL of DMSO after the incubation, and then cell plates were kept at 37° C. for another 30 min. Absorbance signals for MTT and WST-8 were read at 540 nm and 450 nm respectively, with 690 nm as reference performed with Infinite F PLEX plate reader (TECAN, Morrisville, NC, USA). GI50 values were analyzed using GraphPad Prism 8 from the data of at least three independent experiments.

[4] = tested on: SK-MEL-28 cells; assay: WST-8 cell viability assay, SK-MEL-28; conditions: WST-8 3 d serial dilutions
Protocol: as §1, §2

[5] = HT-29 cells, 0.3 μM, 1 μM and 3 μM, western blot normalized with α-tubulin

Row | Structure (SMILES) | GI50 [1] [µM] | MEK1 and MEK2 protein levels [2, 5] | also measured
1 | O=C1CCC(N2C(=O)c3ccc(NCCOCCOCCOCCOCCNCCCONC(=O)c4ccc(F)c(F)c4Nc4ccc(I)cc4F)cc3C2=O)C(=O)N1 (centres unmarked) [CPD-050, N-((1-((2-(2,6-dioxopiperidin-3-yl)-1,3-dioxoisoindolin-5-yl)amino)-3,6,9,12-tetraoxa-15-azaoctadecan-18-yl)oxy)-3,4-difluoro-2-((2-fluoro-4-iodophenyl)amino)benzamide] | 0.5 ± 0.06 | significantly degraded | –
2 | O=C1CCC(N2C(=O)c3ccc(NCCCCCCCNCCCONC(=O)c4ccc(F)c(F)c4Nc4ccc(I)cc4F)cc3C2=O)C(=O)N1 (centres unmarked) [CPD-045, N-(3-((7-((2-(2,6-dioxopiperidin-3-yl)-1,3-dioxoisoindolin-5-yl)amino)heptyl)amino)propoxy)-3,4-difluoro-2-((2-fluoro-4-iodophenyl)amino)benzamide] | 0.5 ± 0.2 | significantly degraded | –
3 | O=C1CCC(N2C(=O)c3ccc(NCCCCCNCCCONC(=O)c4ccc(F)c(F)c4Nc4ccc(I)cc4F)cc3C2=O)C(=O)N1 (centres unmarked) [CPD-043, N-(3-((5-((2-(2,6-dioxopiperidin-3-yl)-1,3-dioxoisoindolin-5-yl)amino)pentyl)amino)propoxy)-3,4-difluoro-2-((2-fluoro-4-iodophenyl)amino)benzamide] | 0.5 ± 0.1 | significantly degraded | –
4 | Cc1ncsc1-c1ccc(CNC(=O)[C@@H]2C[C@@H](O)CN2C(=O)[C@@H](NC(=O)CCCCCCCCCCNCCCONC(=O)c2ccc(F)c(F)c2Nc2ccc(I)cc2F)C(C)(C)C)cc1 [CPD-014, (2S,4R)-1-((S)-20-(tert-butyl)-1-(3,4-difluoro-2-((2-fluoro-4-iodophenyl)amino)phenyl)-1,18-dioxo-3-oxa-2,7,19-triazahenicosan-21-oyl)-4-hydroxy-N-(4-(4-methylthiazol-5-yl)benzyl)pyrrolidine-2-carboxamide] | 0.4 ± 0.2 | reduced | –
5 | O=C1CCC(N2C(=O)c3cccc(NCCNCCCONC(=O)c4ccc(F)c(F)c4Nc4ccc(I)cc4F)c3C2=O)C(=O)N1 (centres unmarked) [CPD-024, N-(3-((2-((2-(2,6-dioxopiperidin-3-yl)-1,3-dioxoisoindolin-4-yl)amino)ethyl)amino)propoxy)-3,4-difluoro-2-((2-fluoro-4-iodophenyl)amino)benzamide] | 0.4 ± 0.01 | not | –
6 | O=C1CCC(N2C(=O)c3ccc(NCCCNCCCONC(=O)c4ccc(F)c(F)c4Nc4ccc(I)cc4F)cc3C2=O)C(=O)N1 (centres unmarked) [CPD-041, N-(3-((3-((2-(2,6-dioxopiperidin-3-yl)-1,3-dioxoisoindolin-5-yl)amino)propyl)amino)propoxy)-3,4-difluoro-2-((2-fluoro-4-iodophenyl)amino)benzamide] | 0.5 ± 0.2 | not | –
7 | O=C1CCC(N2C(=O)c3cccc(NCCOCCNCCCONC(=O)c4ccc(F)c(F)c4Nc4ccc(I)cc4F)c3C2=O)C(=O)N1 (centres unmarked) [CPD-019, N-(3-((2-(2-((2-(2,6-dioxopiperidin-3-yl)-1,3-dioxoisoindolin-4-yl)amino)ethoxy)ethyl)amino)propoxy)-3,4-difluoro-2-((2-fluoro-4-iodophenyl)amino)benzamide] | 1.2 ± 0.2 | not | –
8 | O=C(NOC[C@H](O)CO)c1ccc(F)c(F)c1Nc1ccc(I)cc1F [PD0325901, reference compound] | – | – | MEK1 and MEK2 protein levels ([2]; HT-29 cells, 0.1, 0.3, or 1 μM): not
9 | Cc1ncsc1-c1ccc(CNC(=O)[C@@H]2C[C@@H](O)CN2C(=O)[C@@H](NC(=O)COCCOCCOCCNCCCONC(=O)c2ccc(F)c(F)c2Nc2ccc(I)cc2F)C(C)(C)C)cc1 [CPD-015, (2S,4R)-1-((S)-20-(tert-butyl)-1-(3,4-difluoro-2-((2-fluoro-4-iodophenyl)amino)phenyl)-1,18-dioxo-3,10,13,16-tetraoxa-2,7,19-triazahenicosan-21-oyl)-4-hydroxy-N-(4-(4-methylthiazol-5-yl)benzyl)pyrrolidine-2-carboxamide] | 1.3 ± 0.1 | reduced | –
10 | Cc1ncsc1-c1ccc([C@H](C)NC(=O)[C@H]2C[C@H](O)CN2C(=O)[C@@H](NC(=O)CCCCCCCCCCN(C)CCCONC(=O)c2ccc(F)c(F)c2Nc2ccc(I)cc2F)C(C)(C)C)cc1 [CPD-053, (2R,4S)-1-((S)-20-(tert-butyl)-1-(3,4-difluoro-2-((2-fluoro-4-iodophenyl)amino)phenyl)-7-methyl-1,18-dioxo-3-oxa-2,7,19-triazahenicosan-21-oyl)-4-hydroxy-N-((S)-1-(4-(4-methylthiazol-5-yl)phenyl)ethyl)pyrrolidine-2-carboxamide] | – | – | growth of cells [3]: did not significantly suppress; growth of cells [4]: did not significantly suppress
11 | O=C1CCC(N2C(=O)c3ccc(NCCCCCCCCNCCCONC(=O)c4ccc(F)c(F)c4Nc4ccc(I)cc4F)cc3C2=O)C(=O)N1 (centres unmarked) [CPD-046, N-(3-((8-((2-(2,6-dioxopiperidin-3-yl)-1,3-dioxoisoindolin-5-yl)amino)octyl)amino)propoxy)-3,4-difluoro-2-((2-fluoro-4-iodophenyl)amino)benzamide] | 0.3 ± 0.1 | significantly degraded | –
12 | Cc1ncsc1-c1ccc(CNC(=O)[C@@H]2C[C@@H](O)CN2C(=O)[C@@H](NC(=O)CCCCCCNCCCONC(=O)c2ccc(F)c(F)c2Nc2ccc(I)cc2F)C(C)(C)C)cc1 [CPD-001, (2S,4R)-1-((S)-16-(tert-Butyl)-1-(3,4-difluoro-2-((2-fluoro-4-iodophenyl)amino)phenyl)-1,14-dioxo-3-oxa-2,7,15-triazaheptadecan-17-oyl)-4-hydroxy-N-(4-(4-methylthiazol-5-yl)benzyl)pyrrolidine-2-carboxamide] | 1.4 ± 0.2 | reduced | –
13 | O=C1CCC(N2C(=O)c3cccc(NCCCCCCCNCCCONC(=O)c4ccc(F)c(F)c4Nc4ccc(I)cc4F)c3C2=O)C(=O)N1 (centres unmarked) [CPD-029, N-(3-((7-((2-(2,6-dioxopiperidin-3-yl)-1,3-dioxoisoindolin-4-yl)amino)heptyl)amino)propoxy)-3,4-difluoro-2-((2-fluoro-4-iodophenyl)amino)benzamide] | 4.5 ± 1.9 | – | –
14 | O=C1CCC(N2C(=O)c3cccc(NCCCCCCCCNCCCONC(=O)c4ccc(F)c(F)c4Nc4ccc(I)cc4F)c3C2=O)C(=O)N1 (centres unmarked) [CPD-030, N-(3-((8-((2-(2,6-dioxopiperidin-3-yl)-1,3-dioxoisoindolin-4-yl)amino)octyl)amino)propoxy)-3,4-difluoro-2-((2-fluoro-4-iodophenyl)amino)benzamide] | 3.5 ± 0.9 | – | –
15 | O=C1CCC(N2C(=O)c3cccc(NCCCCNCCCONC(=O)c4ccc(F)c(F)c4Nc4ccc(I)cc4F)c3C2=O)C(=O)N1 (centres unmarked) [CPD-026, N-(3-((4-((2-(2,6-dioxopiperidin-3-yl)-1,3-dioxoisoindolin-4-yl)amino)butyl)amino)propoxy)-3,4-difluoro-2-((2-fluoro-4-iodophenyl)amino)benzamide] | 1.9 ± 0.4 | – | –

From patent US12103924B2, “Mitogen-activated protein kinase kinase (MEK) degradation compounds and methods of use” (Icahn School of Medicine at Mount Sinai, priority 2020, dated 2024)
